Holding throughout (type): cell-based, HIV-1
The subject of one experiment is HIV-IIIb IN T174I BT. Briefly: Antiviral assay in MT4 cells, HIV-IIIb IN T174I BT virus (from viral breakthrough). The note with it: Human immunodeficiency virus 1, IIIB, MT4, 120 h, read-out: T174I BT EC50, MT4 cells, HIV-IIIb IN T174I BT (viral breakthrough), 5 days, CellTiter-Glo. An outline of the steps: (§1)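 MT4 cells were pre-infected for 3 h at 37 °C with HIV-IIIb (0.004 m.o.i.), then plated at 2000 cells per well with 3-fold serially diluted compound (10 concentrations, quadruplicate). After 5 days at 37 °C, CellTiter-Glo luminescence was read, and EC50 was taken as the concentration giving a 50% decrease in signal.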

Another experiment relates to HIV-IIIb (wildtype). Briefly: Antiviral assay in MT4 cells, HIV-IIIb wildtype. The note with it: Human immunodeficiency virus 1, IIIB, MT4, 120 h, read-out: WT EC50. In short, it runs like this: as §1
Another experiment relates to HIV-IIIb IN T174I DE. Briefly: Antiviral assay in MT4 cells, HIV-IIIb IN T174I DE virus (from dose escalation passaging). As to conditions: Human immunodeficiency virus 1, IIIB, MT4, 120 h, read-out: T174I DE EC50, MT4 cells, HIV-IIIb IN T174I DE (dose escalation), 5 days, CellTiter-Glo. An outline of the steps: as §1
(Cellular ATP, detected with luciferase, serves as a proxy for viable cell number.)

Broadly, the EC50 is the concentration at which the effect is half-maximal.

As for `Cc1cc2nc(-c3ccc4c(n3)c(C3CCN(C5COC5)CC3)nn4C3CC3)sc2c(-c2ccc(Cl)cc2)c1[C@H](OC(C)(C)C)C(=O)O` [Compound 178, (S)-2-(tert-butoxy)-2-(7-(4-chloro-phenyl)-2-(1-cyclo-propyl-3-(1-(oxetan-3-yl)piperidin-4-yl)-1H-pyrazolo[4,3-b]pyridin-5-yl)-5-methylbenzo[d]thiazol-6-yl) acetic acid], the EC50 came out at 121 nM with HIV-IIIb IN T174I BT, 4 nM in the experiment with HIV-IIIb (wildtype) and 317 nM in the experiment on HIV-IIIb IN T174I DE.
`CCn1nc(C2CCN(C3CN(C(=O)OC)C3)CC2)c2nc(-c3nc4cc(C)c([C@H](OC(C)(C)C)C(=O)O)c(-c5ccc(Cl)cc5)c4s3)ccc21` [Compound 179, (S)-2-(tert-butoxy)-2-(7-(4-chloro-phenyl)-2-(1-ethyl-3-(1-(1-(methoxy-carbonyl)azetidin-3-yl)piperidin-4-yl)-1H-pyrazolo [4,3-b]pyridin-5-yl)-5-methylbenzo [d]thiazol-6-yl) acetic acid]: the EC50 with HIV-IIIb IN T174I BT is 28 nM; in the experiment on HIV-IIIb (wildtype), 3 nM; in the experiment on HIV-IIIb IN T174I DE, 108 nM.
Turning to `COC(=O)N1CC(N2CCC(c3nn(C4CC4)c4ccc(-c5nc6cc(C)c([C@H](OC(C)(C)C)C(=O)O)c(-c7ccc(Cl)cc7)c6s5)nc34)CC2)C1` [Compound 180, (S)-2-(tert-butoxy)-2-(7-(4-chloro-phenyl)-2-(1-cyclopropyl-3-(1-(1-(methoxy-carbonyl)azetidin-3-yl)piperidin-4-yl)-1H-pyrazolo [4,3-b]pyridin-5-yl)-5-methylbenzo [d]thiazol-6-yl) acetic acid], the figures for the EC50 with HIV-IIIb IN T174I BT, in the experiment with HIV-IIIb (wildtype) and with HIV-IIIb IN T174I DE were 64 nM, 4 nM and 212 nM, respectively.
With `CCn1nc(C2CCN(C3CN(C(C)=O)C3)CC2)c2nc(-c3nc4cc(C)c([C@H](OC(C)(C)C)C(=O)O)c(-c5ccc(Cl)cc5)c4s3)ccc21` [Compound 181, (S)-2-(2-(3-(1-(1-acetylazetidin-3-yl)piperidin-4-yl)-1-ethyl-1H-pyrazolo[4,3-b]pyridin-5-yl)-7-(4-chlorophenyl)-5-methylbenzo [d]thiazol-6-yl)-2-(tert-butoxy) acetic acid], the EC50 in the experiment with HIV-IIIb IN T174I BT was 12 nM; in the experiment with HIV-IIIb (wildtype), 1 nM; with HIV-IIIb IN T174I DE, 34 nM.
The corresponding values for `CC(=O)N1CC(N2CCC(c3nn(C4CC4)c4ccc(-c5nc6cc(C)c([C@H](OC(C)(C)C)C(=O)O)c(-c7ccc(Cl)cc7)c6s5)nc34)CC2)C1` [Compound 182, (S)-2-(2-(3-(1-(1-acetylazetidin-3-yl)piperidin-4-yl)-1-cyclopropyl-1H-pyrazolo[4,3-b]pyridin-5-yl)-7-(4-chlorophenyl)-5-methylbenzo [d]thiazol-6-yl)-2-(tert-butoxy) acetic acid] are 27 nM, 2 nM and 59 nM.
For `CC(=O)N1CC(N2CCC(c3nn(C(F)F)c4ccc(-c5nc6cc(C)c([C@H](OC(C)(C)C)C(=O)O)c(-c7ccc(Cl)cc7)c6s5)nc34)CC2)C1` [Compound 183, (S)-2-(2-(3-(1-(1-acetylazetidin-3-yl)piperidin-4-yl)-1-(difluoromethyl)-1H-pyrazolo [4,3-b]pyridin-5-yl)-7-(4-chloro-phenyl)-5-methylbenzo[d]thiazol-6-yl)-2-(tert-butoxy) acetic acid], the EC50 was found to be 29 nM in the experiment with HIV-IIIb IN T174I BT, 2 nM in the experiment on HIV-IIIb (wildtype) and 69 nM in the experiment on HIV-IIIb IN T174I DE.
Consider `Cc1cc2nc(-c3ccc4c(n3)c(C3CCN([C@H]5C[C@H](O)C5)CC3)nn4C)sc2c(-c2ccc(Cl)cc2)c1[C@H](OC(C)(C)C)C(=O)O` [Compound 186, (S)-2-(tert-butoxy)-2-(7-(4-chloro-phenyl)-2-(3-(1-((1r,3r)-3-hydroxy-cyclobutyl)piperidin-4-yl)-1-methyl-1H-pyrazolo[4,3-b]pyridin-5-yl)-5-methylbenzo[d]thiazol-6-yl) acetic acid], for which the results for the concentration for a half-maximal effect (EC50) in the experiment with HIV-IIIb IN T174I BT, in the experiment with HIV-IIIb (wildtype) and in the experiment on HIV-IIIb IN T174I DE were 367 nM, 29 nM and 784 nM, respectively.
The corresponding values for `Cc1cc2nc(-c3ccc4c(n3)c(C3CCN(C5CC5)CC3)nn4C)sc2c(-c2ccc(Cl)cc2)c1[C@H](OC(C)(C)C)C(=O)O` [Compound 187, (S)-2-(tert-butoxy)-2-(7-(4-chloro-phenyl)-2-(3-(1-cyclopropyl-piperidin-4-yl)-1-methyl-1H-pyrazolo[4,3-b]pyridin-5-yl)-5-methylbenzo[d]thiazol-6-yl) acetic acid] are 339 nM, 4 nM and 844 nM.
On the same counts, the results for `CC(=O)N1CC(N2CCC(c3c4nc(-c5nc6cc(C)c([C@H](OC(C)(C)C)C(=O)O)c(-c7ccc(Cl)cc7)c6s5)ccc4nn3C(F)F)CC2)C1` [Compound 189, (S)-2-(2-(3-(1-(1-acetylazetidin-3-yl)piperidin-4-yl)-2-(difluoromethyl)-2H-pyrazolo [4,3-b]pyridin-5-yl)-7-(4-chloro-phenyl)-5-methylbenzo[d]thiazol-6-yl)-2-(tert-butoxy) acetic acid] are 1020 nM, 12 nM and 1400 nM.
`COC(=O)N1CC(N2CCC(c3c4nc(-c5nc6cc(C)c([C@H](OC(C)(C)C)C(=O)O)c(-c7ccc(Cl)cc7)c6s5)ccc4nn3C(F)F)CC2)C1` [Compound 190, (S)-2-(tert-butoxy)-2-(7-(4-chloro-phenyl)-2-(2-(difluoromethyl)-3-(1-(1-(methoxy-carbonyl)azetidin-3-yl)piperidin-4-yl)-2H-pyrazolo [4,3-b]pyridin-5-yl)-5-methylbenzo [d]thiazol-6-yl) acetic acid]: the EC50 in the experiment on HIV-IIIb IN T174I BT amounted to 1760 nM; in the experiment on HIV-IIIb (wildtype) it was 6 nM; in the experiment with HIV-IIIb IN T174I DE, 2750 nM.
On to `[2H]C([2H])([2H])n1nc(C2CCN(C3CN(C(=O)OC)C3)CC2)c2nc(-c3nc4cc(C)c([C@H](OC(C)(C)C)C(=O)O)c(-c5ccc(Cl)cc5)c4s3)ccc21` [Compound 191, (S)-2-(tert-butoxy)-2-(7-(4-chloro-phenyl)-2-(3-(1-(1-(methoxycarbonyl)azetidin-3-yl)piperidin-4-yl)-1-(methyl-d3)-1H-pyrazolo[4,3-b]pyridin-5-yl)-5-methylbenzo[d]thiazol-6-yl) acetic acid], for which the EC50 is 55 nM in the experiment on HIV-IIIb IN T174I BT, 2 nM in the experiment with HIV-IIIb (wildtype) and 108 nM in the experiment with HIV-IIIb IN T174I DE.
The corresponding values for `[2H]C([2H])([2H])n1nc(C2CCN(C3CN(C(C)=O)C3)CC2)c2nc(-c3nc4cc(C)c([C@H](OC(C)(C)C)C(=O)O)c(-c5ccc(Cl)cc5)c4s3)ccc21` [Compound 192, (S)-2-(2-(3-(1-(1-acetylazetidin-3-yl)piperidin-4-yl)-1-(methyl-d3)-1H-pyrazolo [4,3-b]pyridin-5-yl)-7-(4-chloro-phenyl)-5-methylbenzo[d]thiazol-6-yl)-2-(tert-butoxy) acetic acid] are 28 nM, 1 nM and 55 nM.
Consider `COC(=O)N1CC[C@H](N2CCC(c3nn(C)c4ccc(-c5nc6cc(C)c([C@H](OC(C)(C)C)C(=O)O)c(-c7ccc(Cl)cc7)c6s5)nc34)CC2)C1` [Compound 193, (S)-2-(tert-butoxy)-2-(7-(4-chloro-phenyl)-2-(3-(1-((S)-l-(methoxy-carbonyl)pyrrolidin-3-yl)piperidin-4-yl)-1-methyl-1H-pyrazolo[4,3-b]pyridin-5-yl)-5-methylbenzo[d]thiazol-6-yl) acetic acid], for which the EC50 amounted to 87 nM in the experiment with HIV-IIIb IN T174I BT, 3 nM in the experiment on HIV-IIIb (wildtype) and 265 nM in the experiment with HIV-IIIb IN T174I DE.
`Cc1cc2nc(-c3ccc4c(n3)c(C3CCN(C5COC5)CC3)nn4C(F)F)sc2c(-c2ccc(Cl)cc2)c1[C@H](OC(C)(C)C)C(=O)O` [Compound 194, (S)-2-(tert-butoxy)-2-(7-(4-chloro-phenyl)-2-(1-(difluoromethyl)-3-(1-(oxetan-3-yl)piperidin-4-yl)-1H-pyrazolo [4,3-b]pyridin-5-yl)-5-methylbenzo [d]thiazol-6-yl) acetic acid]: the EC50 in the experiment on HIV-IIIb IN T174I BT came out at 126 nM; with HIV-IIIb (wildtype), 4 nM; in the experiment with HIV-IIIb IN T174I DE, 300 nM.
On the same counts, the results for `Cc1cc2nc(-c3ccc4c(n3)c(N3CCN(C5CS(=O)(=O)C5)CC3)nn4C)sc2c(-c2ccc(Cl)cc2)c1[C@H](OC(C)(C)C)C(=O)O` [Compound 198, (S)-2-(tert-butoxy)-2-(7-(4-chloro-phenyl)-2-(3-(4-(1,1-dioxidothietan-3-yl)piperazin-1-yl)-1-methyl-1H-pyrazolo[4,3-b]pyridin-5-yl)-5-methylbenzo[d]thiazol-6-yl) acetic acid] are 1040 nM, 9 nM and 4620 nM.
The corresponding values for `COC(=O)N1CC(N2CCC(c3cn(C)c4ncc(-c5nc6cc(C)c([C@H](OC(C)(C)C)C(=O)O)c(-c7ccc(Cl)cc7)c6s5)nc34)CC2)C1` [Compound 199, (S)-2-(tert-butoxy)-2-(7-(4-chloro-phenyl)-2-(7-(1-(1-(methoxycarbonyl)azetidin-3-yl)piperidin-4-yl)-5-methyl-5H-pyrrolo[2,3-b]pyrazin-2-yl)-5-methylbenzo[d]thiazol-6-yl) acetic acid] are 149 nM, 4 nM and 770 nM.
The corresponding values for `CC(=O)N1CC(N2CCC(c3cn(C)c4ncc(-c5nc6cc(C)c([C@H](OC(C)(C)C)C(=O)O)c(-c7ccc(Cl)cc7)c6s5)nc34)CC2)C1` [Compound 200, (S)-2-(2-(7-(1-(1-acetylazetidin-3-yl)piperidin-4-yl)-5-methyl-5H-pyrrolo[2,3-b]pyrazin-2-yl)-7-(4-chlorophenyl)-5-methylbenzo [d]thiazol-6-yl)-2-(tert-butoxy) acetic acid] are 90 nM, 1 nM and 241 nM.

(Values after US10800772B2 (Gilead Sciences, Inc., priority 2016, dated 2020).)
